ChEMBL document CHEMBL1201862, “PubChem BioAssay data set” (2004)
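A five-concentration, 48-hour dose response in 96-well plates underlies each endpoint, interpolated linearly between surrounding concentrations. GI50 = concentration required for 50% inhibition of growth.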 Active and inactive are the calls of the source. Rule as the data show it: active = GI50 up to about 1.1 µM and inactive = higher.

Key:
Assay in all cases: growth of human tumour cells (NCI), 48 h
KM-20L2 = system: KM-20L2
SW-620 = system: SW-620
M19-MEL = system: M19-MEL
SK-OV-3 = system: SK-OV-3
HOP-18 = system: HOP-18
RXF 393 = system: RXF 393
MOLT-4 = system: MOLT-4
IGROV-1 = system: IGROV-1
COLO 205 = system: COLO 205
SF-539 = system: SF-539
DLD-1 = system: DLD-1
U-251 = system: U-251
SN12C = system: SN12C
OVCAR-5 = system: OVCAR-5
XF498 = system: XF498
RPMI-8226 = system: RPMI-8226
CAKI-1 = system: CAKI-1
TK-10 = system: TK-10
SNB-78 = system: SNB-78
KM12 = system: KM12
HCT-116 = system: HCT-116
K562 = system: K562
ACHN = system: ACHN
LOX IMVI = system: LOX IMVI
UO-31 = system: UO-31
SK-MEL-2 = system: SK-MEL-2
OVCAR-8 = system: OVCAR-8
HCT-15 = system: HCT-15
HT-29 = system: HT-29
M14 = system: M14
A498 = system: A498
EKVX = system: EKVX
UACC-62 = system: UACC-62
SF-295 = system: SF-295
CCRF-CEM = system: CCRF-CEM
SR = system: SR
HOP-92 = system: HOP-92
SF-268 = system: SF-268
OVCAR-3 = system: OVCAR-3
Malme-3M = system: Malme-3M
LXFL 529 = system: LXFL 529
NCI-H23 = system: NCI-H23
DMS-273 = system: DMS-273
OVCAR-4 = system: OVCAR-4
786-0 = system: 786-0
DMS-114 = system: DMS-114
HCC 2998 = system: HCC 2998
A549 = system: A549
SK-MEL-28 = system: SK-MEL-28
HL-60 = system: HL-60
SNB-75 = system: SNB-75
NCI-H522 = system: NCI-H522
HOP-62 = system: HOP-62
SK-MEL-5 = system: SK-MEL-5
NCI-H460 = system: NCI-H460
NCI-H226 = system: NCI-H226
UACC-257 = system: UACC-257
SNB-19 = system: SNB-19
RXF 631 = system: RXF 631

Measured: GI50

O=C1/C(=C/c2ccccc2)CN(C(=O)Oc2ccc([N+](=O)[O-])cc2)C/C1=C\c1ccccc1
2.08 µM: HCT-15
active: SW-620 0.59 µM | MOLT-4 0.649 µM | RPMI-8226 0.0551 µM | KM12 0.661 µM | HCT-116 0.506 µM | K562 0.859 µM | LOX IMVI 0.676 µM | OVCAR-8 1.12 µM | M14 0.908 µM | DMS-273 0.883 µM | HL-60 1.04 µM
inactive: KM-20L2 4.69 µM | M19-MEL 1.77 µM | SK-OV-3 > 10 µM | HOP-18 > 10 µM | RXF 393 6.84 µM | IGROV-1 6.84 µM | COLO 205 7.83 µM | SF-539 9.42 µM | DLD-1 1.79 µM | U-251 1.77 µM | SN12C 2.79 µM | OVCAR-5 > 10 µM | XF498 > 10 µM | CAKI-1 > 10 µM | TK-10 > 10 µM | SNB-78 5.16 µM | ACHN 6.65 µM | UO-31 9.77 µM | SK-MEL-2 14.2 µM | HT-29 1.42 µM | A498 > 10 µM | EKVX > 10 µM | UACC-62 2.41 µM | SF-295 1.33 µM | CCRF-CEM 1.38 µM | SR 2.1 µM | HOP-92 > 10 µM | SF-268 5.09 µM | OVCAR-3 3.73 µM | Malme-3M > 10 µM | LXFL 529 2.02 µM | NCI-H23 7.76 µM | OVCAR-4 2.56 µM | 786-0 4.49 µM | DMS-114 2.11 µM | HCC 2998 2.74 µM | A549 > 10 µM | SK-MEL-28 3.48 µM | SNB-75 4.4 µM | NCI-H522 3.18 µM | HOP-62 > 10 µM | SK-MEL-5 3.64 µM | NCI-H460 6.03 µM | NCI-H226 > 10 µM | UACC-257 5.18 µM | SNB-19 6.65 µM

COc1ccccc1NC(=O)C(CC(C(=O)Nc1ccccc1OC)/C(C)=N/NC(=O)c1ccccc1O)/C(C)=N/NC(=O)c1ccccc1O (stereo not drawn)
inactive: KM-20L2 > 100 µM | SW-620 88.5 µM | M19-MEL > 100 µM | SK-OV-3 > 100 µM | RXF 393 38.8 µM | MOLT-4 47.5 µM | IGROV-1 > 100 µM | COLO 205 > 100 µM | SF-539 54.2 µM | DLD-1 57.5 µM | U-251 59 µM | SN12C > 100 µM | OVCAR-5 > 100 µM | XF498 > 100 µM | RPMI-8226 59.8 µM | CAKI-1 67 µM | TK-10 > 100 µM | SNB-78 > 100 µM | KM12 > 100 µM | K562 > 100 µM | ACHN 98.6 µM | LOX IMVI > 100 µM | UO-31 40.4 µM | SK-MEL-2 > 100 µM | OVCAR-8 75 µM | HT-29 > 100 µM | M14 > 100 µM | A498 65 µM | EKVX 72.9 µM | SF-295 59.7 µM | CCRF-CEM 33 µM | RXF 631 69.8 µM | HOP-92 26 µM | SF-268 > 100 µM | OVCAR-3 54.1 µM | Malme-3M > 100 µM | LXFL 529 66.4 µM | NCI-H23 > 100 µM | DMS-273 > 100 µM | OVCAR-4 51.8 µM | 786-0 > 100 µM | DMS-114 70.8 µM | HCC 2998 > 100 µM | A549 82.4 µM | SK-MEL-28 > 100 µM | HL-60 47.5 µM | SNB-75 96.6 µM | NCI-H522 64.4 µM | HOP-62 > 100 µM | SK-MEL-5 47 µM | NCI-H460 57.9 µM | NCI-H226 60.3 µM | UACC-257 > 100 µM | SNB-19 61.7 µM

C1=NN(Cc2ccccc2)C(N(Cc2ccccc2)Cc2ccccc2)N1 (stereo not drawn)
16.1 µM: HCT-15
inactive: KM-20L2 14.1 µM | SW-620 20.6 µM | M19-MEL 17.5 µM | SK-OV-3 15.4 µM | HOP-18 23.3 µM | RXF 393 16.2 µM | MOLT-4 15.2 µM | IGROV-1 14.5 µM | COLO 205 16.9 µM | SF-539 15.4 µM | DLD-1 21.1 µM | U-251 16.7 µM | SN12C 17 µM | OVCAR-5 13 µM | RPMI-8226 3.9 µM | CAKI-1 14.4 µM | TK-10 29.3 µM | SNB-78 29.6 µM | KM12 16.3 µM | HCT-116 9.31 µM | K562 8.91 µM | ACHN 19.7 µM | LOX IMVI 15.3 µM | UO-31 14.2 µM | SK-MEL-2 16.4 µM | OVCAR-8 23.9 µM | HT-29 15.2 µM | M14 11 µM | A498 17.7 µM | EKVX 20.3 µM | UACC-62 14 µM | SF-295 14.5 µM | CCRF-CEM 12.2 µM | RXF 631 16.1 µM | HOP-92 12.8 µM | SF-268 21.3 µM | OVCAR-3 14 µM | Malme-3M 12.2 µM | LXFL 529 12.1 µM | NCI-H23 16.9 µM | DMS-273 15.1 µM | OVCAR-4 15.8 µM | 786-0 17.8 µM | DMS-114 12.7 µM | HCC 2998 17.5 µM | A549 16.3 µM | SK-MEL-28 19 µM | HL-60 4.91 µM | SNB-75 23.1 µM | NCI-H522 15.7 µM | HOP-62 18.2 µM | SK-MEL-5 14.2 µM | NCI-H460 18.1 µM | NCI-H226 18.5 µM | UACC-257 16.7 µM | SNB-19 20.9 µM

CCOC(=O)C(=O)Nc1nc2ccc(C)cc2s1
inactive: KM-20L2 > 100 µM | SW-620 > 100 µM | M19-MEL > 100 µM | SK-OV-3 > 100 µM | MOLT-4 > 100 µM | IGROV-1 > 100 µM | COLO 205 > 100 µM | DLD-1 > 100 µM | U-251 > 100 µM | SN12C > 100 µM | OVCAR-5 > 100 µM | XF498 > 100 µM | RPMI-8226 > 100 µM | CAKI-1 > 100 µM | SNB-78 87.7 µM | KM12 > 100 µM | HCT-116 > 100 µM | K562 > 100 µM | ACHN > 100 µM | UO-31 > 100 µM | SK-MEL-2 > 100 µM | OVCAR-8 > 100 µM | HT-29 > 100 µM | M14 > 100 µM | A498 > 100 µM | EKVX > 100 µM | UACC-62 > 100 µM | CCRF-CEM > 100 µM | RXF 631 > 100 µM | SR > 100 µM | HOP-92 > 100 µM | SF-268 > 100 µM | OVCAR-3 > 100 µM | Malme-3M > 100 µM | LXFL 529 > 100 µM | NCI-H23 > 100 µM | DMS-273 > 100 µM | OVCAR-4 > 100 µM | 786-0 27.9 µM | DMS-114 > 100 µM | HCC 2998 > 100 µM | A549 32.4 µM | SK-MEL-28 > 100 µM | SNB-75 > 100 µM | NCI-H522 > 100 µM | HOP-62 > 100 µM | SK-MEL-5 > 100 µM | NCI-H460 > 100 µM | NCI-H226 > 100 µM | UACC-257 > 100 µM | SNB-19 > 100 µM
active: SF-539 0.995 µM
> 100 µM: HCT-15

O=C1C(Br)=CC2(C=C1Br)CCNC1=C2C(=O)c2ccccc2C1=O
7.76 µM: HCT-15
inactive: KM-20L2 7.41 µM | SW-620 9.98 µM | M19-MEL 4.66 µM | SK-OV-3 30.4 µM | HOP-18 32.2 µM | RXF 393 3.84 µM | MOLT-4 3.75 µM | IGROV-1 18.5 µM | COLO 205 4.61 µM | DLD-1 9.25 µM | SN12C 6.68 µM | RPMI-8226 4.75 µM | CAKI-1 21.6 µM | TK-10 33.3 µM | SNB-78 11.2 µM | KM12 8.22 µM | HCT-116 4.13 µM | K562 7.89 µM | ACHN 14.1 µM | LOX IMVI 4.24 µM | SK-MEL-2 14.9 µM | OVCAR-8 4.21 µM | HT-29 18.7 µM | M14 18.4 µM | EKVX 38.5 µM | UACC-62 8.59 µM | SF-295 16.8 µM | CCRF-CEM 3.57 µM | RXF 631 5.69 µM | SR 2.95 µM | SF-268 11.2 µM | OVCAR-3 29.6 µM | Malme-3M 18.1 µM | LXFL 529 5.37 µM | NCI-H23 7.6 µM | 786-0 11.9 µM | DMS-114 5.7 µM | A549 22.8 µM | SK-MEL-28 > 10 µM | HL-60 3.34 µM | SNB-75 > 100 µM | NCI-H522 3.58 µM | HOP-62 16 µM | SK-MEL-5 11.6 µM | UACC-257 14.1 µM
